Results on 67 compounds are retold here after patent US20250171459A1, “2-METHYL-4',5'-DIHYDROSPIRO[PIPERIDINE-4,7'-THIENO[2,3-C]PYRAN] DERIVATIVES AS INHIBITORS OF APOL1 AND METHODS OF USING SAME” (Vertex Pharmaceuticals Incorporated, priority 2022, published 2025).

For the assay, the target named is T1, APOL1 (Homo sapiens, UniProt O14791).
T1 sequence (O14791 1-398 S342G/I384M): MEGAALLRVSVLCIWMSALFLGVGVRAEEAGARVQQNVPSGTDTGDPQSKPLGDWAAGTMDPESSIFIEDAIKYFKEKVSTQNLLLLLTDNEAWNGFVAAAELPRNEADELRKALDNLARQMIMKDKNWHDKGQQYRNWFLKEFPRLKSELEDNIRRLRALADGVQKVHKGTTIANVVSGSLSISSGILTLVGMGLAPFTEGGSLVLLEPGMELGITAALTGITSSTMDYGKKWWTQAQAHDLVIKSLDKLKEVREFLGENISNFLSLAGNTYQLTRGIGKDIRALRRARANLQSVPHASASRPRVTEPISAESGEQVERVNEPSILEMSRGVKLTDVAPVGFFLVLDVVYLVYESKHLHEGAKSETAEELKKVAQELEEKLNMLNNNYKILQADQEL
As to the kind of experiment: MultiTox-Fluor Multiplex Cytotoxicity Assay in tet-inducible APOL1 T-REx-HEK293 cells (cell rescue, ratio of dead to live cells). Format: cell-based. As to conditions: tet-inducible transgenic APOL1 T-REx-HEK293 cell lines, 50 ng/mL tet, 24 hours; read-out: IP50 (i.e., IC50 for cell proliferation). The procedure, abridged: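 T-REx-HEK293 cells with tet-inducible APOL1 were treated with compound (10 μM top, 10-point 3-fold dilution, duplicate) plus 50 ng/mL tetracycline for 24 h at 37° C, in DMEM with 2% tet-free FBS. MultiTox-Fluor protease signals gave a dead/live ratio, normalized to no tet (100% viability) and tet alone (0%).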

With `CCc1cc2c(s1)CCOC21CCN(Cc2cnc(Nc3cccnc3)nc2)CC1` [Compound 1074], the IC50 was less than 100 nM.

As for `CCc1cc2c(s1)CCOC21CCN(Cc2cnc(NCc3cc[nH]c(=O)c3)nc2)CC1` [Compound 1075], the IC50 was 100 to 500 nM.

With `CCc1cc2c(s1)CCOC21CCN(Cc2cnc(NC3CC3OC)nc2)CC1` (stereo not shown) [Compound 1076], the IC50 was 100 to 500 nM.

For the compound `CCc1cc2c(s1)CCOC21CCN(Cc2cnc(N[C@H](CC)CO)nc2)CC1` [Compound 1077], the IC50 lay in the range of 100 to 500 nM.

`CCc1cc2c(s1)CCOC21CCN(Cc2cnc(NCCn3cccn3)nc2)CC1` [Compound 1078]: the IC50 was in the range of 100 to 500 nM.

As to `CCc1cc2c(s1)CCOC21CCN(Cc2cn(CC(O)C(C)(C)O)nn2)CC1` (stereo not shown) [Compound 1079, 1-(4-((2′-ethyl-6′,7′-dihydrospiro[piperidine-4,4′-thieno[3,2-c]pyran]-1-yl)methyl)-1H-1,2,3-triazol-1-yl)-3-methylbutane-2,3-diol], the IC50 lay in the range of 100 to 500 nM.

For `CCc1cc2c(s1)CCOC21CCN(Cc2cn(CCS(N)(=O)=O)nn2)CC1` [Compound 1080], the IC50 lay within 100 to 500 nM.

With `CCc1cc2c(s1)CCOC21CCN(Cc2cn(CC(C)(C)S(C)(=O)=O)nn2)CC1` [Compound 1081], the IC50 was in the range of 100 to 500 nM.

As for `CCc1cc2c(s1)CCOC21CCN(Cc2cn(CC3(O)CCCC3)nn2)CC1` [Compound 1082], the IC50 was in the range of 100 to 500 nM.

As to `CCc1cc2c(s1)CCOC21CCN(Cc2cn(CCS(=O)(=O)NC)nn2)CC1` [Compound 1083], the IC50 fell in the range of 500 to 1000 nM.

On to `CCc1cc2c(s1)CCOC21CCN(Cc2cn(CC(O)CC)nn2)CC1` (stereo not shown) [Compound 1084], for which the IC50 lay in the range of 500 to 1000 nM.

Take `CCc1cc2c(s1)CCOC21CCN(Cc2cn(CCS(C)(=O)=O)nn2)CC1` [Compound 1085]: the IC50 fell in the range of 500 to 1000 nM.

For `CCc1cc2c(s1)CCOC21CCN(Cc2cn(CCS(=O)(=O)C3CC3)nn2)CC1` [Compound 1086], the IC50 was 500 to 1000 nM.

`CCc1nnc(Cn2cc(CN3CCC4(CC3)OCCc3sc(CC)cc34)nn2)o1` [Compound 1087]: the IC50 is 500 to 1000 nM.

As to `CCc1cc2c(s1)CCOC21CCN(Cc2cn(CC(C)S(C)(=O)=O)nn2)CC1` (stereo not shown) [Compound 1088], the IC50 was 500 to 1000 nM.

As to `CCc1cc2c(s1)CCOC21CCN(Cc2cn(CCS(=O)(=O)CC)nn2)CC1` [Compound 1089], the IC50 lay within 500 to 1000 nM.

With `CCc1cc2c(s1)CCOC21CCN(Cc2cn(CCS(=O)(=O)CC3CC3)nn2)CC1` [Compound 1090], the IC50 fell in the range of 500 to 1000 nM.

`CCc1cc2c(s1)CCOC21CCN(Cc2cn(CCS(=O)(=O)C3CCOCC3)nn2)CC1` [Compound 1091]: the IC50 was 500 to 1000 nM.

As for `CCc1cc2c(s1)CCOC21CCN(Cc2cn(CC(=O)NCC(C)O)nn2)CC1` (stereo not shown) [Compound 1092], the IC50 lay within 500 to 1000 nM.

For `CCc1cc2c(s1)CCOC21CCN(Cc2cn(CCc3csc(N)n3)nn2)CC1` [Compound 1093], the IC50 was 500 to 1000 nM.

Consider `CCc1cc2c(s1)CCOC21CCN(Cc2cn(C3CC(O)C3(C)C)nn2)CC1` (stereo not shown) [Compound 1094], for which the IC50 was 500 to 1000 nM.

With `CCc1cc2c(s1)CCOC21CCN(Cc2cn(CC(=O)NCCO)nn2)CC1` [Compound 1095], the IC50 was 500 to 1000 nM.

For `CCc1cc2c(s1)CCOC21CCN(Cc2cn(CC(=O)NCCC(F)(F)F)nn2)CC1` [Compound 1096], the IC50 was in the range of 500 to 1000 nM.

`CCc1cc2c(s1)CCOC21CCN(Cc2cn(CC(O)c3cnn(C)c3)nn2)CC1` (stereo not shown) [Compound 1097]: the IC50 was 500 to 1000 nM.

Regarding `CCc1cc2c(s1)CCOC21CCN(Cc2cn([C@H]3CC[C@@H]3O)nn2)CC1` [Compound 1098], the IC50 fell in the range of 500 to 1000 nM.

Turning to `CCc1cc2c(s1)CCOC21CCN(Cc2cn(CCCF)nn2)CC1` [Compound 1099], the IC50 was 500 to 1000 nM.

Take `CCc1cc2c(s1)CCOC21CCN(Cc2cn(CCC(=O)NCCC(F)(F)F)nn2)CC1` [Compound 1100]: the IC50 is 500 to 1000 nM.

As to `CCc1cc2c(s1)CCOC21CCN(Cc2cn(C(C)c3nnc(C)o3)nn2)CC1` (stereo not shown) [Compound 1101], the IC50 was in the range of 500 to 1000 nM.

In the case of `CCc1cc2c(s1)CCOC21CCN(Cc2cn(CCC(=O)NCC(C)O)nn2)CC1` (stereo not shown) [Compound 1102], the IC50 was in the range of 500 to 1000 nM.

For the compound `CCc1cc2c(s1)CCOC21CCN(Cc2cn(CC(O)c3cccnc3)nn2)CC1` (stereo not shown) [Compound 1103], the IC50 is 500 to 1000 nM.

On to `CCc1cc2c(s1)CCOC21CCN(Cc2cn(CCN3CCC(O)C3)nn2)CC1` (stereo not shown) [Compound 1104], for which the IC50 lay within 500 to 1000 nM.

Turning to `CCc1cc2c(s1)CCOC21CCN(Cc2cn(C3CC(F)(F)C3)nn2)CC1` [Compound 1105], the IC50 lay within 500 to 1000 nM.

For `CCc1cc2c(s1)CCOC21CCN(Cc2cn(Cc3cc(C(N)=O)co3)nn2)CC1` [Compound 1106], the IC50 is 500 to 1000 nM.

As for `CCc1cc2c(s1)CCOC21CCN(Cc2cn(CC(=O)NC)nn2)CC1` [Compound 1107], the IC50 fell in the range of 500 to 1000 nM.

In the case of `CCc1cc2c(s1)CCOC21CCN(Cc2cn(Cc3cc(COC)[nH]n3)nn2)CC1` [Compound 1108], the IC50 fell in the range of 500 to 1000 nM.

With `CCc1cc2c(s1)CCOC21CCN(Cc2cn(CCc3noc(C)n3)nn2)CC1` [Compound 1109], the IC50 lay in the range of 500 to 1000 nM.

On to `CCc1cc2c(s1)CCOC21CCN(Cc2cn(C[C@H]3CC[C@@H](CO)O3)nn2)CC1` [Compound 1110], for which the IC50 is 500 to 1000 nM.

On to `CCc1cc2c(s1)CCOC21CCN(Cc2cn(CCC(=O)NCCO)nn2)CC1` [Compound 1111], for which the IC50 is 500 to 1000 nM.

`CCc1cc2c(s1)CCOC21CCN(Cc2cn(C3CC3)nn2)CC1` [Compound 1112]: the IC50 fell in the range of 500 to 1000 nM.

Consider `CCc1cc2c(s1)CCOC21CCN(Cc2cn(CC3CCOCC3)nn2)CC1` [Compound 1113], for which the IC50 is 500 to 1000 nM.

For the compound `CCc1cc2c(s1)CCOC21CCN(Cc2cn(CCC(N)=O)nn2)CC1` [Compound 1114], the IC50 lay within 500 to 1000 nM.

As to `CCc1cc2c(s1)CCOC21CCN(Cc2cn(CCCN3CC(O)C3)nn2)CC1` [Compound 1115], the IC50 is 500 to 1000 nM.

For `CCc1cc2c(s1)CCOC21CCN(Cc2cn(C3CCN(C(C)=O)CC3)nn2)CC1` [Compound 1116], the IC50 is 500 to 1000 nM.

In the case of `CCc1cc2c(s1)CCOC21CCN(Cc2cn(C(C)C(=O)NCCO)nn2)CC1` (stereo not shown) [Compound 1117], the IC50 is 500 to 1000 nM.

With `CCc1cc2c(s1)CCOC21CCN(Cc2cn(CC3CNC(=O)O3)nn2)CC1` (stereo not shown) [Compound 1118], the IC50 lay within 500 to 1000 nM.

As for `CCc1cc2c(s1)CCOC21CCN(Cc2cn(C(C)C(=O)NCC(C)O)nn2)CC1` (stereo not shown) [Compound 1119], the IC50 was 500 to 1000 nM.

In the case of `CCc1cc2c(s1)CCOC21CCN(Cc2cn(CCC(=O)NC)nn2)CC1` [Compound 1120], the IC50 lay in the range of 500 to 1000 nM.

With `CCc1cc2c(s1)CCOC21CCN(Cc2cn(C(C)C(=O)NCCC(F)(F)F)nn2)CC1` (stereo not shown) [Compound 1121], the IC50 fell in the range of 500 to 1000 nM.

As for `CCc1cc2c(s1)CCOC21CCN(Cc2cn(CC(=O)NC3COC3)nn2)CC1` [Compound 1122], the IC50 fell in the range of 500 to 1000 nM.

With `CCc1cc2c(s1)CCOC21CCN(Cc2cn(C3CCC3(F)F)nn2)CC1` (stereo not shown) [Compound 1123], the IC50 fell in the range of 500 to 1000 nM.

Regarding `CCc1cc2c(s1)CCOC21CCN(Cc2cn(Cc3ccc(=O)[nH]c3)nn2)CC1` [Compound 1124], the IC50 lay within 500 to 1000 nM.

In the case of `CCc1cc2c(s1)CCOC21CCN(Cc2cn(Cc3ccc[nH]c3=O)nn2)CC1` [Compound 1125], the IC50 is 500 to 1000 nM.

Take `CCc1cc2c(s1)CCOC21CCN(Cc2cc3nc(OC)ccc3[nH]2)CC1` [Compound 1126, 2′-ethyl-1-((5-methoxy-1H-pyrrolo[3,2-b]pyridin-2-yl)methyl)-6′,7′-dihydrospiro[piperidine-4,4′-thieno[3,2-c]pyran]]: the IC50 is less than 100 nM.

For `CCc1cc2c(s1)CCOC21CCN(Cc2cnn(CCS(=O)(=O)NC)c2)CC1` [Compound 1127], the IC50 is less than 100 nM.

`CCc1cc2c(s1)CCOC21CCN(Cc2ccc3[nH]ncc3c2)CC1` [Compound 1128]: the IC50 was less than 100 nM.

For the compound `CCc1cc2c(s1)CCOC21CCN(Cc2ccc(NS(C)(=O)=O)cc2)CC1` [Compound 1129], the IC50 lay within 100 to 500 nM.

With `CCc1cc2c(s1)CCOC21CCN(Cc2cnn(CCS(C)(=O)=O)c2)CC1` [Compound 1130], the IC50 lay in the range of 100 to 500 nM.

Consider `CCc1cc2c(s1)CCOC21CCN(Cc2cnn(CCS(=O)(=O)N(C)C)c2)CC1` [Compound 1131], for which the IC50 fell in the range of 100 to 500 nM.

On to `CCc1cc2c(s1)CCOC21CCN(Cc2cnc(NC(=O)COCCOC)s2)CC1` [Compound 1132], for which the IC50 is 100 to 500 nM.

With `CCc1cc2c(s1)CCOC21CCN(Cc2cn[nH]c2)CC1` [Compound 1133], the IC50 fell in the range of 100 to 500 nM.

`CCc1cc2c(s1)CCOC21CCN(Cc2cnc(N)s2)CC1` [Compound 1134]: the IC50 lay within 100 to 500 nM.

For the compound `CCc1cc2c(s1)CCOC21CCN(Cc2cnn(C(C)=O)c2)CC1` [Compound 1135], the IC50 is 100 to 500 nM.

As to `CCc1cc2c(s1)CCOC21CCN(Cc2cnc(-c3cccnc3)s2)CC1` [Compound 1136], the IC50 was in the range of 100 to 500 nM.

On to `CCc1cc2c(s1)CCOC21CCN(Cc2cnc(N3CCCCC3)s2)CC1` [Compound 1137], for which the IC50 is 100 to 500 nM.

Turning to `CCc1cc2c(s1)CCOC21CCN(Cc2cnn(C)c2)CC1` [Compound 1138], the IC50 lay within 100 to 500 nM.

For `CCc1cc2c(s1)CCOC21CCN(Cc2csc(-c3cccnc3)n2)CC1` [Compound 1139], the IC50 lay within 500 to 1000 nM.

Take `CCc1cc2c(s1)CCOC21CCN(Cc2cnc(-c3ccccn3)s2)CC1` [Compound 1140]: the IC50 is 500 to 1000 nM.
